Experimental data taken from US9707233B2, “Heterocyclylamines as PI3K inhibitors” (Incyte Corporation, priority 2011, dated 2017).

Key:
PI3Kδ (p110δ/p85α) = PI3Kδ (p110δ/p85α) (Homo sapiens (Human), UniProt O00329); assay: PI3Kδ scintillation proximity assay (Example A3); format: biochemical; settings: 20 μM ATP, 20 μM PIP2, 4 nM PI3Kδ; read-out: PI3Kδ SPA IC50
How it was run: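 Human PI3Kδ (p110δ/p85α, 4 nM) with 20 μM PIP2 and 20 μM ATP plus [γ-33P]ATP in 20 mM MOPS pH 6.7, 10 mM MgCl2, 5 mM DTT, 0.03% CHAPS, 0.5% DMSO, room temperature. Reaction stopped with EDTA/excess ATP; product captured on WGA SPA beads and counted. IC50 from percent control activity vs log inhibitor.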

PI3Kδ = PI3Kδ (Homo sapiens (Human), UniProt O00329); assay: PI3K enzyme assay, [γ-33P]ATP filter plate (Example A2), isoform δ; format: biochemical; settings: as determined by Assay A2; 1000 μM ATP, 2.9 nM PI3Kδ
Description: PI3K isoforms α, β, δ and γ are purchased from Millipore (Bedford, Mass.).
Inhibitors are first diluted serially in DMSO and added to the plate wells before the addition of other reaction components. The final concentration of DMSO in the assay is 0.5%. The PI3K assays are carried out at room temperature in 20 mM MOPS, pH 6.7, 10 mM MgCl2, 5 mM DTT and CHAPS 0.03%. The reaction mixture is prepared containing 50 μM PIP2, kinase and varying concentration of inhibitors. Reactions are initiated by the addition of ATP containing 2.2 μCi [γ-^33P]ATP to a final concentration of 1000 μM. […] Reactions are incubated for 180 minutes and terminated by the addition of 100 μL of 1 M potassium phosphate pH 8.0, 30 mM EDTA quench buffer. A 100 μL aliquot of the reaction solution are then transferred to 96-well Millipore MultiScreen IP 0.45 μm PVDF filter plate (The filter plate is prewetted with 200 μL 100% ethanol, distilled water, and 1 M potassium phosphate pH 8.0, respectively). […] After drying by aspiration and blotting, the plate is air dried in an incubator at 37° C. overnight. Packard TopCount adapter (Millipore) is then attached to the plate followed with addition of 120 μL Microscint 20 scintillation cocktail (Perkin Elmer) in each well. After the plate sealing, the radioactivity of the product is determined by scintillation counting on Topcount (Perkin-Elmer). […]

Chain of PI3Kδ (p110δ/p85α) (O00329 whole entry): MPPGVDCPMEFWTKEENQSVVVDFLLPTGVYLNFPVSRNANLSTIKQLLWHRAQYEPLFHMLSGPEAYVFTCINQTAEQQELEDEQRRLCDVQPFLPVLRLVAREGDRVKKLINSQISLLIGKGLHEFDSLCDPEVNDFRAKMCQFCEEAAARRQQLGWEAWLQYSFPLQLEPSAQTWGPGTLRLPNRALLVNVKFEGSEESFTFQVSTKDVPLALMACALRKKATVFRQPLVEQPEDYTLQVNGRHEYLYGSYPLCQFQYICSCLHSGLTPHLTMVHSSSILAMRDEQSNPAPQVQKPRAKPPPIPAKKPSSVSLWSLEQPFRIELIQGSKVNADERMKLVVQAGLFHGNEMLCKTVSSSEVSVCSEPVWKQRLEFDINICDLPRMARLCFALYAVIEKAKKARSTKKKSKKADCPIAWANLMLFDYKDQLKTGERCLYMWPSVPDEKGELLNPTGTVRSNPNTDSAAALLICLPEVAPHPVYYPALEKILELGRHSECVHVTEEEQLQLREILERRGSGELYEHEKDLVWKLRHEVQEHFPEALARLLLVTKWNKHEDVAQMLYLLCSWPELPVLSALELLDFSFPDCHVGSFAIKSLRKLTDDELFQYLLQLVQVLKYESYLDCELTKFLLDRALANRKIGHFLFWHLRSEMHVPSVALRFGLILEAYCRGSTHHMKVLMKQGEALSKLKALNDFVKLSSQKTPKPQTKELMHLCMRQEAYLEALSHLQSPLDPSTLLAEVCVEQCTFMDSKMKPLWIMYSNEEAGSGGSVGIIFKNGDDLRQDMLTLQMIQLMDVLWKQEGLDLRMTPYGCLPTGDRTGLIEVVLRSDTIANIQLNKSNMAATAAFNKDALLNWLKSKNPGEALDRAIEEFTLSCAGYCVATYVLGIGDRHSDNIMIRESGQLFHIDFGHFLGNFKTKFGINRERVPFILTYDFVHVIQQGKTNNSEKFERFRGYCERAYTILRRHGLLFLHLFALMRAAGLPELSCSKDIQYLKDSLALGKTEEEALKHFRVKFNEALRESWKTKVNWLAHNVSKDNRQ
Chain of PI3Kδ (p110δ/p85α) (P27986 whole entry partner): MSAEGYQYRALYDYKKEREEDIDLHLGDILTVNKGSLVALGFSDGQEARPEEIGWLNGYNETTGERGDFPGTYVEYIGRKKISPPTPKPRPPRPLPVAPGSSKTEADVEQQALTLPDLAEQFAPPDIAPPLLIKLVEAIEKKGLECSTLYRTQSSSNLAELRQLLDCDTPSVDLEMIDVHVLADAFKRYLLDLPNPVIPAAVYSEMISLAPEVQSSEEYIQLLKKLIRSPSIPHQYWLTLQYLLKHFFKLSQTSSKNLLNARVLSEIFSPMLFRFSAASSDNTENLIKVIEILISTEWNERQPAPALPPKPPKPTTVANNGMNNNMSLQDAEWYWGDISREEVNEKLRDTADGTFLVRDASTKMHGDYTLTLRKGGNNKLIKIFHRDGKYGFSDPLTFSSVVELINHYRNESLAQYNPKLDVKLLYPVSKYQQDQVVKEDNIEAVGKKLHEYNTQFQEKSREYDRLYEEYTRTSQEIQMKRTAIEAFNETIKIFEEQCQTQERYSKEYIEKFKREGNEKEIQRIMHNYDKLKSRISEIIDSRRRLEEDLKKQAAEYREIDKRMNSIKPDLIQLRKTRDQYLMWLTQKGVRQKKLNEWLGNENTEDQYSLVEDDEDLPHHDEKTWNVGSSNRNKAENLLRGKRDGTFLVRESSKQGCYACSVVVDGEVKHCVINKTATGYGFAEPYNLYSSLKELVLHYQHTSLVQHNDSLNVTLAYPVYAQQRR
Chain of PI3Kδ (O00329 whole entry, canonical isoform): as the sequence (O00329 whole entry) above
Chain of PI3Kδ (P27986 whole entry partner, canonical isoform): as the sequence (P27986 whole entry partner) above

Row | IC50 (PI3Kδ (p110δ/p85α)) [nM] | IC50 (PI3Kδ) [nM] | Compound
1 | ≤ 10 | – | CCOc1c(C(C)n2nc(C)c3c(N)ncnc32)cc(Cl)c(C#N)c1C1CN(C(=O)NC)C1 (stereo not shown) [Example 257, 3-{3-[1-(4-Amino-3-methyl-1H-pyrazolo[3,4-d]pyrimidin-1-yl)ethyl]-5-chloro-6-cyano-2-ethoxyphenyl}-N-methylazetidine-1-carboxamide]
2 | ≤ 10 | – | COc1c(C(C)n2nc(C)c3c(N)ncnc32)cc(Cl)c(C#N)c1C1CN(C(C)C)C1 (stereo not shown) [Example 264, 4-[1-(4-Amino-3-methyl-1H-pyrazolo[3,4-d]pyrimidin-1-yl)ethyl]-6-chloro-2-(1-isopropylazetidin-3-yl)-3-methoxybenzonitrile]
3 | ≤ 10 | – | COc1c(C(C)n2nc(C)c3c(N)ncnc32)cc(Cl)c(C#N)c1C1CN(CC(C)(C)O)C1 (stereo not shown) [Example 271, 4-[1-(4-Amino-3-methyl-1H-pyrazolo[3,4-d]pyrimidin-1-yl)ethyl]-6-chloro-2-[1-(2-hydroxy-2-methylpropyl)azetidin-3-yl]-3-methoxybenzonitrile]
4 | – | 50 to 200 | COc1c([C@@H](C)n2nc(C)c3c(N)ncnc32)cc(Cl)c(C#N)c1C1CN(C[C@@H](C)O)C1 [Example 363, 4-((R)-1-(4-amino-3-methyl-1H-pyrazolo[3,4-d]pyrimidin-1-yl)ethyl)-6-chloro-2-(1-((R)-2-hydroxypropyl)azetidin-3-yl)-3-methoxybenzonitrile]
